Assay results: ChEMBL document CHEMBL4732043, “The discovery of novel indazole derivatives as tubulin colchicine site binding agents that displayed potent antitumor activity both in vitro and in vivo” (Eur J Med Chem, 2020)

Experiments:
[1] = test system: HCT-116; test: Antiproliferative activity against human HCT-116 cells assessed as cell viability after 72 hrs by MTT assay; type: functional
[2] = test system: HepG2; test: Antiproliferative activity against human HepG2 cells assessed as cell viability after 72 hrs by MTT assay; type: functional
[3] = test system: A549; test: Antiproliferative activity against human A549 cells assessed as cell viability after 72 hrs by MTT assay; type: functional
[4] = test system: SW-620; test: Antiproliferative activity against human SW-620 cells assessed as cell viability after 72 hrs by MTT assay; type: functional
[5] = test system: HT-29; test: Antiproliferative activity against human HT-29 cells assessed as cell viability after 72 hrs by MTT assay; type: functional
[6] = Cytotoxicity against HUVEC assessed as cell viability after 72 hrs by MTT assay; type: cell-based; conditions: human, HUVEC cells
[7] = (§1) Inhibition of porcine brain tubulin polymerization by fluorescence based assay; type: cell-based, Sus scrofa domesticus, 1-87 tumor cell line
[8] = test system: 1-87 tumor cell line; test: as §1; conditions: Sus scrofa domesticus
[9] = molecular target: T1, Tubulin (Homo sapiens) (UniProt P68371+Q9H4B7+P0DPH7+P68366+Q13509+Q71U36+P04350+Q3ZCM7+P07437+P68363+Q9BQE3+Q6PEY2+Q13885+Q9BVA1+Q9BUF5); test: Inhibition of tubulin polymerization in human HCT-116 cells assessed as microtubule network polymerization after 24 hrs by immunofluorescence analysis; type: cell-based; conditions: dose 20-40 nM
[10] = molecular target: T1, Tubulin (Homo sapiens); test: Inhibition of tubulin polymerization in human HCT-116 cells assessed as microtubule spindle formation after 24 hrs by immunofluorescence analysis; type: cell-based; conditions: dose 20-40 nM
[11] = molecular target: T1, Tubulin (Homo sapiens); test: Inhibition of tubulin polymerization in human HCT-116 cells assessed as complete microtubule depolymerization at 40 nM after 24 hrs by immunofluorescence analysis; type: cell-based
[12] = molecular target: Tubulin beta (Homo sapiens) (UniProt P68371+Q9H4B7+Q13509+P04350+Q3ZCM7+P07437+Q13885+Q9BVA1+Q9BUF5+A6NNZ2); test: Inhibition of N,N'-Ethylenebis(iodoacetamide) binding to beta-tubulin in human HCT-116 cells assessed as reduction in EBI/beta-tubulin adduct formation preincubated for 2 hrs followed by EBI addition and measured after 1.5 hrs by Western blot analysis; type: cell-based; conditions: dose 0.2-25 µM, time 3.5 hrs
[13] = test system: HCT-116; test: Induction of cell cycle arrest in human HCT-116 cells assessed as accumulation of cells at G1 phase at 10 nM after 24 hrs by flow cytometry (reference value: 40.5%); type: functional
[14] = test system: HCT-116; test: Induction of cell cycle arrest in human HCT-116 cells assessed as accumulation of cells at S phase at 10 nM after 24 hrs by flow cytometry (reference value: 43.12%); type: functional
[15] = test system: HCT-116; test: Induction of cell cycle arrest in human HCT-116 cells assessed as accumulation of cells at G2/M phase at 10 nM after 24 hrs by flow cytometry (reference value: 16.35%); type: functional
[16] = test system: HCT-116; test: Induction of cell cycle arrest in human HCT-116 cells assessed as accumulation of cells at G1 phase at 20 nM after 24 hrs by flow cytometry (reference value: 40.5%); type: functional
[17] = test system: HCT-116; test: Induction of cell cycle arrest in human HCT-116 cells assessed as accumulation of cells at S phase at 20 nM after 24 hrs by flow cytometry (reference value: 43.12%); type: functional
[18] = test system: HCT-116; test: Induction of cell cycle arrest in human HCT-116 cells assessed as accumulation of cells at G2/M phase at 20 nM after 24 hrs by flow cytometry (reference value: 16.35%); type: functional
[19] = test system: HCT-116; test: Induction of apoptosis in human HCT-116 cells assessed as viable cells at 10 nM after 24 hrs by annexinV and 7-ADD staining based flow cytometry (reference value: 96.7%); type: functional; conditions: read-out: Activity
[20] = molecular target: Vascular endothelial growth factor receptor 2 (Homo sapiens) (UniProt P35968); test: Inhibition of human KDR expressed in mammalian expression system at 10 uM by radiometric assay
[21] = molecular target: Proto-oncogene tyrosine-protein kinase Src (Homo sapiens) (UniProt P12931); test: Inhibition of human recombinant c-SRC (1-530 aa) at 10 uM by radiometric assay
[22] = molecular target: Protein kinase C alpha type (Homo sapiens) (UniProt P17252); test: Inhibition of human recombinant PKCalpha at 10 uM by radiometric assay
[23] = test system: HCT-116; test: Antitumor activity against human HCT-116 cells xenografted in nude mouse assessed as inhibition of tumor growth at 12.5 mg/kg, po for 21 days; type: functional; conditions: HCT-116, po, 504 h, time 21 day, read-out: TGI
[24] = test system: HCT-116; test: Antitumor activity against human HCT-116 cells xenografted in nude mouse assessed as inhibition of tumor growth at 25 mg/kg, po for 21 days; type: functional; conditions: HCT-116, po, 504 h, time 21 day, read-out: TGI
[25] = Toxicity in nude mouse xenografted with human HCT-116 cells assessed as change in body weight at 12.5 mg/kg, po for 21 days (reference value: 2.2%); type: organism-based; conditions: in vivo, 504 h, time 21 day
[26] = Toxicity in nude mouse xenografted with human HCT-116 cells assessed as change in body weight at 25 mg/kg, po for 21 days (reference value: 2.2%); type: organism-based; conditions: in vivo, 504 h, time 21 day
[27] = test system: HCT-116; test: Induction of apoptosis in human HCT-116 cells assessed as early apoptotic cells at 10 nM after 24 hrs by annexinV and 7-ADD staining based flow cytometry (reference value: 0.9%); type: functional
[28] = test system: HCT-116; test: Induction of apoptosis in human HCT-116 cells assessed as late apoptotic cells at 10 nM after 24 hrs by annexinV and 7-ADD staining based flow cytometry (reference value: 1.5%); type: functional
[29] = test system: HCT-116; test: Induction of apoptosis in human HCT-116 cells assessed as necrotic cells at 10 nM after 24 hrs by annexinV and 7-ADD staining based flow cytometry (reference value: 0.9%); type: functional
[30] = test system: HCT-116; test: Induction of apoptosis in human HCT-116 cells assessed as viable cells at 20 nM after 24 hrs by annexinV and 7-ADD staining based flow cytometry (reference value: 96.7%); type: functional; conditions: read-out: Activity
[31] = test system: HCT-116; test: Induction of apoptosis in human HCT-116 cells assessed as early apoptotic cells at 20 nM after 24 hrs by annexinV and 7-ADD staining based flow cytometry (reference value: 0.9%); type: functional
[32] = test system: HCT-116; test: Induction of apoptosis in human HCT-116 cells assessed as late apoptotic cells at 20 nM after 24 hrs by annexinV and 7-ADD staining based flow cytometry (reference value: 1.5%); type: functional
[33] = test system: HCT-116; test: Induction of apoptosis in human HCT-116 cells assessed as necrotic cells at 20 nM after 24 hrs by annexinV and 7-ADD staining based flow cytometry (reference value: 0.9%); type: functional
[34] = test system: HCT-116; test: Induction of apoptosis in human HCT-116 cells assessed as viable cells at 40 nM after 24 hrs by annexinV and 7-ADD staining based flow cytometry (reference value: 96.7%); type: functional; conditions: read-out: Activity
[35] = test system: HCT-116; test: Induction of apoptosis in human HCT-116 cells assessed as early apoptotic cells at 40 nM after 24 hrs by annexinV and 7-ADD staining based flow cytometry (reference value: 0.9%); type: functional
[36] = test system: HCT-116; test: Induction of apoptosis in human HCT-116 cells assessed as late apoptotic cells at 40 nM after 24 hrs by annexinV and 7-ADD staining based flow cytometry (reference value: 1.5%); type: functional
[37] = test system: HCT-116; test: Induction of apoptosis in human HCT-116 cells assessed as necrotic cells at 40 nM after 24 hrs by annexinV and 7-ADD staining based flow cytometry (reference value: 0.9%); type: functional

Sequence of Vascular endothelial growth factor receptor 2 (Homo sapiens) (P35968 whole entry, the tested form may be a part): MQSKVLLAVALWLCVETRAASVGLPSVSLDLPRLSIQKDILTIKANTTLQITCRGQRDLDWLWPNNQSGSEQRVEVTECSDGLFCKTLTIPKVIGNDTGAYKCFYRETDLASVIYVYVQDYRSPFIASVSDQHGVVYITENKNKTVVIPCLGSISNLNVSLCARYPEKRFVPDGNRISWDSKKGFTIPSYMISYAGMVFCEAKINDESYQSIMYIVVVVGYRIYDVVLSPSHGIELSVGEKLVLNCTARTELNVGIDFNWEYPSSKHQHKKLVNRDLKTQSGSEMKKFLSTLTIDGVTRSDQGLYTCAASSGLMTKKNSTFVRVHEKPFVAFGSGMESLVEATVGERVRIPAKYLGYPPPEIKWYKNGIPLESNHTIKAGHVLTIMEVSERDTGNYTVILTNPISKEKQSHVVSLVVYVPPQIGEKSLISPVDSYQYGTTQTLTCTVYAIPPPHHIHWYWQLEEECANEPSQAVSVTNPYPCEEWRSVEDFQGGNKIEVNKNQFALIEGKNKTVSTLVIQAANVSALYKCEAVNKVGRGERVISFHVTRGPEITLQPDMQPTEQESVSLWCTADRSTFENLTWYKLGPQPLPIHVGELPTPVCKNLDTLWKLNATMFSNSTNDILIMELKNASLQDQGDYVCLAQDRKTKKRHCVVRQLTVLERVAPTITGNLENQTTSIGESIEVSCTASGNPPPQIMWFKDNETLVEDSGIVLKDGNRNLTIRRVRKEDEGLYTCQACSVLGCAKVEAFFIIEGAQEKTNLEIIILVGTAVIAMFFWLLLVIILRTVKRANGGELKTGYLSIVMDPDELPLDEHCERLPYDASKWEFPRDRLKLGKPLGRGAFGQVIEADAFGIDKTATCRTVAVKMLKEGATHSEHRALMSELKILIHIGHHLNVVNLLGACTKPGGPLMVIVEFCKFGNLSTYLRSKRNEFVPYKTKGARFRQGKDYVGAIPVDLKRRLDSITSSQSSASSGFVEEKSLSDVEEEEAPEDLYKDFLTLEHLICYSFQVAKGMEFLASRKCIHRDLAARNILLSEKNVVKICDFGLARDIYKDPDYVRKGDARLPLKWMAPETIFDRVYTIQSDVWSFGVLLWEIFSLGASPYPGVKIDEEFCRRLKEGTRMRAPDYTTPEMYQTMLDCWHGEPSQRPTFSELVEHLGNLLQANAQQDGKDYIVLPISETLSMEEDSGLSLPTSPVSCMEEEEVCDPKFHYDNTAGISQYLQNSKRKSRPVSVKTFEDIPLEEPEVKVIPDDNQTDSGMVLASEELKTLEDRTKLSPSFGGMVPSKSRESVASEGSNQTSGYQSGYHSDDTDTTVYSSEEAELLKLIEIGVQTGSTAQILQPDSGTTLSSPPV
Sequence of Proto-oncogene tyrosine-protein kinase Src (Homo sapiens) (P12931 2-536 limits assumed): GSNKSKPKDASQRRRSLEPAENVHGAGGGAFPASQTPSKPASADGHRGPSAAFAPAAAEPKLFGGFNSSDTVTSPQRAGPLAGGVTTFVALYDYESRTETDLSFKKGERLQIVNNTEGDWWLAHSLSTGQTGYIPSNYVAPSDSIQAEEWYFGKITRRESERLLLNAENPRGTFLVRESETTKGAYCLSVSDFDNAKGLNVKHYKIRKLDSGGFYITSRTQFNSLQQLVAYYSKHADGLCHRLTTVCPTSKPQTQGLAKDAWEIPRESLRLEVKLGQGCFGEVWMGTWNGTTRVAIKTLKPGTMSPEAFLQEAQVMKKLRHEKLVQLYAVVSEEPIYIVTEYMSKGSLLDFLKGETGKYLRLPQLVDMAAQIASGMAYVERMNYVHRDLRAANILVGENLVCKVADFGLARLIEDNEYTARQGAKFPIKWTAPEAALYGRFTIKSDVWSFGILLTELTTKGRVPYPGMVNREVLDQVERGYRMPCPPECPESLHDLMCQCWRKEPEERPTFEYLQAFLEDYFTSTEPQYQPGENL

**Q.** Which results are given for `COc1ccc2c(Nc3cc(OC)c(OC)c(OC)c3)n[nH]c2c1`?
**A.** GI50 [1]: 41 nM; GI50 [2]: 53 nM; GI50 [3]: 65 nM; GI50 [4]: 24 nM; GI50 [5]: 96 nM; GI50 at 72 h [6]: > 25000 nM; IC50 [7]: 4770 nM; inhibition [8]: Dose-dependent effect; inhibition [9]: Dose-dependent effect; inhibition [10]: Dose-dependent effect; inhibition [11]: 100%; inhibition [12]: Dose-dependent effect; Activity [13]: 36.86%; Activity [14]: 41.56%; Activity [15]: 21.57%; Activity [16]: 6.85%; Activity [17]: 6.04%; Activity [18]: 87.12%; viability at 0.01 µM [19]: 81.8%; inhibition [20]: 66%; inhibition [21]: 35%; inhibition [22]: 24%; inhibition in vivo at 12.5 mg/kg [23]: 34.3%; inhibition in vivo at 25 mg/kg [24]: 59.9%; Activity [25]: 2.8%; Activity [26]: 1.1%; Activity [27]: 5.1%; Activity [28]: 10.1%; Activity [29]: 3.1%; viability at 0.02 µM [30]: 79.2%; Activity [31]: 5.2%; Activity [32]: 13.1%; Activity [33]: 2.6%; viability at 0.04 µM [34]: 66.2%; Activity [35]: 12.8%; Activity [36]: 17.6%; Activity [37]: 3.5%
